Target: T1, FlK (fluoroacetyl-CoA thioesterase) (Streptantibioticus cattleyicolor, UniProt Q1EMV2)
T1 sequence (Q1EMV2 1-139): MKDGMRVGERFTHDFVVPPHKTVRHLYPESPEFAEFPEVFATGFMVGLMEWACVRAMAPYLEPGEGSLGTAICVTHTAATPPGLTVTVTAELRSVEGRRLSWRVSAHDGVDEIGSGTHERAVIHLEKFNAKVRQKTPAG
Test: pre-steady-state rapid chemical quench, HPLC of CoA release
Assay type: biochemical
Conditions: Bis-Tris 100 mM pH 6.0; covalent acyl-enzyme on Glu 50

SMILES: CC(C)(COP(=O)(O)OP(=O)(O)OC[C@H]1O[C@@H](n2cnc3c(N)ncnc32)[C@H](O)[C@@H]1OP(=O)(O)O)[C@@H](O)C(=O)NCCC(=O)NCCSC(=O)CF [fluoroacetyl-CoA]
- pre-steady-state rapid chemical quench, HPLC of CoA release: we observed a burst phase of product formation consistent with enzyme acylation

Reference: article PMC3985765 (Biochemistry, 2014)
